Data published in patent US5169863A, “Hypersphyxia-causing methods” (K.K. Ueno Seiyaku Oyo Kenkyujo, priority 1988, dated 1992).

What was measured:
[1] = recovery of blood pressure and heart rate of rats in hemorrhage shock; assay type: in vivo, Wister male rats; conditions: intravenous, dehematized rats
Description: (Recovery of blood pressure and heart rate of rats in hemorrhage shock)
Wister male rats (8 weeks old) were applied to anesthesia by subcutaneous injection with 1.5 g/kg of urethane. The blood pressure and heart rate were determined according to the same manner as in Example 1.
The rats were kept for 60 minutes in a room after a blood corresponding to 1.5% of the weight was removed.
13,14-dihydro-6,15-diketo-19-methyl-PGE1 ethyl ester (compound number 15) was dissolved in Ringer's solution (0.1 ml), and the solution was intravenously administered into the above dehematized rat. Ringer's solution was administered to a control group.
The recovery rates of the blood pressure and heart rate were obtained assuming the value at 60 minutes after dehematizing being 0% and the value before dehematizing being 100% respectively. In these FIGS. (1), (2) and (3) represent a dose of 1 mg/kg, dose of 0.5 mg/kg and control respectively.
The same procedure as the above except that the compounds of (7), (18) and (22) were used instead of the compound (15) was applied, and the effects are observed, the results of which are also shown in Table 3.

[2] = progressing a breath (change rate of breath rate); assay type: in vivo, Wister male rats; conditions: Rattus norvegicus, iv, tail vein, rats
Description: Wister male rats (8 weeks old) were applied to anesthesia by intraperitoneal administration with 1.25 g/kg of urethane. A pick-up for breath was fixed on a top of a rat's nose, and the breath curve was recorded on a polygraph while the breath rate was counted with a tachometer.
Each test compound was dissolved in ethanol and administered to rats through a tale vein in 1 mg/kg as diluted with Ringer's solution just before use. The maximum concentration of ethanol was 2 percent. Ringers solution containing ethanol but not containing test compound was administered at every experiment as a control. The change rates (%) of the breath rate before and after administration were determined, and evaluated as progressing activity of breath.

[3] = changing rate of blood pressure and heart rate by intravenous injection in anesthetized rats; assay type: in vivo, Wister male rats; conditions: for change in vivo at 1 mg/kg: Rattus norvegicus; for blood pressure effect (in words): Example 1 conclusion
Description: (blood pressure, heart rate increasing action by intravenous injection) Wister male rats (8 weeks old) were used as test animals. The rats were applied to anesthesia by intraperitoneal administration with 1.25 g/kg of urethane. The blood pressure was determined by inserting a polyethylene tube into a femoral artery, which was connected with a pressure transducer. The heart rate was determined from R wave of electrocardiograms (ECG) induced by standard limb lead II with a tachometer. Each test compound was dissolved in ethanol and intravenously administered to rats in 1 mg/kg diluted with Ringer's solution just before use. The maximum concentration of ethanol was 2 percent. An ethanol-containing Ringer without any test compound was used as a control to confirm the influence of the ethanol in each experiment. Each changing rate (%) in the blood pressure and heart rate before and after administration was determined, and the average of 3-4 experiments was shown in Table 1. Changing rates of blood pressure and heart rate were determined in the same manner as described in Example 1 except that the test compounds 60, 61 and 62 were used in different concentrations instead of the test compounds 1-55.

acute toxicity LD50 = assay type: in vivo; conditions: mouse, in vivo; PO, male mice; read-out: LD50
[4] = Table 1, read-out: changing rate of blood pressure
[5] = Table 1, read-out: changing rate of heart rate

Compound: CCCCCC(=O)CC[C@H]1[C@H](O)CC(=O)[C@@H]1CC(=O)CCCCC(=O)OCC [Compound 7, 13,14-dihydro-6,15-diketo-PGE1 ethyl ester]
- recovering of blood pressure % ([1]; 0.5 mg/kg): 38%
- recovering of heart rate % ([1]; 0.5 mg/kg): 46%
- recovering of blood pressure % ([1]; 1.0 mg/kg): 63%
- recovering of heart rate % ([1]; 1.0 mg/kg): 62%
- change in vivo at 1 mg/kg [2]: 31%
- change in vivo at 1 mg/kg [3, 4]: 5%

Compound: CCCCCC(=O)CC[C@H]1[C@H](C)CC(=O)[C@@H]1CC(=O)CCCCC(=O)OCC [Compound 18, 13,14-dihydro-6,15-diketo-11-dehydroxy-11R-methyl-PGE1 ethyl ester]
- recovering of blood pressure % ([1]; 0.5 mg/kg): 87%
- recovering of heart rate % ([1]; 0.5 mg/kg): 100%
- recovering of blood pressure % ([1]; 1.0 mg/kg): 119%
- recovering of heart rate % ([1]; 1.0 mg/kg): 100%
- change in vivo at 1 mg/kg [2]: 28%
- change in vivo at 1 mg/kg [3, 4]: 18%
- change in vivo at 1 mg/kg [3, 5]: 17%

Compound: CCCCCC(=O)CC[C@H]1[C@H](O)CC(=O)[C@@H]1C/C=C\CC=CC(=O)OC [Compound 27, 13,14-dihydro-15-keto-Δ^2 -PGE2-methyl ester]
- change in vivo at 1 mg/kg [2]: 11%
- change in vivo at 1 mg/kg [3, 4]: 6%
- change in vivo at 1 mg/kg [3, 5]: 21%

Compound: CCCCCC(=O)CC[C@H]1[C@H](O)CC(=O)[C@@H]1C/C=C\CC(C)CC(=O)OC (stereo partly drawn) [Compound 28, 13,14-dihydro-15-keto-3R,S-methyl-PGE2 methyl ester]
- change in vivo at 1 mg/kg [2]: 40%
- change in vivo at 1 mg/kg [3, 4]: 12%
- change in vivo at 1 mg/kg [3, 5]: 33%

Compound: CCCCCC(=O)CC[C@H]1[C@H](O)CC(=O)[C@@H]1C/C=C\CC(C)CC(=O)OCC (stereo partly drawn) [Compound 29, 13,14-dihydro-15-keto-3R,S-methyl-PGE2 ethyl ester]
- change in vivo at 1 mg/kg [2]: 11%
- change in vivo at 1 mg/kg [3, 4]: 7%
- change in vivo at 1 mg/kg [3, 5]: 17%

Compound: CCCCC(C)C(=O)CC[C@H]1[C@H](O)CC(=O)[C@@H]1C/C=C\CCCC(=O)OC (stereo partly drawn) [Compound 30, 13,14-dihydro-15-keto-16R,S-methyl-PGE2 methyl ester]
- change in vivo at 1 mg/kg [2]: 61%
- change in vivo at 1 mg/kg [3, 4]: 14%
- change in vivo at 1 mg/kg [3, 5]: 29%

Compound: CCCCC(C)C(=O)CC[C@H]1[C@H](O)CC(=O)[C@@H]1C/C=C\CCCC(=O)OCC (stereo partly drawn) [Compound 31, 13,14-dihydro-15-keto-16R,S-methyl-PGE2 ethyl ester]
- change in vivo at 1 mg/kg [2]: 40%
- change in vivo at 1 mg/kg [3, 4]: 14%
- change in vivo at 1 mg/kg [3, 5]: 46%

Compound: CCCCC(C)C(=O)CC[C@H]1[C@H](O)CC(=O)[C@@H]1C/C=C\CC(C)CC(=O)OC (stereo partly drawn) [Compound 32, 13,14-dihydro-15-keto-3R,S-16R,S-dimethyl-PGE2 methyl ester]
- change in vivo at 1 mg/kg [2]: 41%
- change in vivo at 1 mg/kg [3, 4]: 14%
- change in vivo at 1 mg/kg [3, 5]: 30%

Compound: CCCCC(C)(C)C(=O)CC[C@H]1[C@H](O)CC(=O)[C@@H]1C/C=C\CCCC(=O)OC [Compound 33, 13,14-dihydro-15-keto-16,16-dimethyl-PGE2 methyl ester]
- change in vivo at 1 mg/kg [2]: 40%
- change in vivo at 1 mg/kg [3, 4]: 20%
- change in vivo at 1 mg/kg [3, 5]: 28%

Compound: CCCCC(C)(C)C(=O)CC[C@H]1[C@H](O)CC(=O)[C@@H]1C/C=C\CCCC(=O)OCC [Compound 34, 13,14-dihydro-15-keto-16,16-dimethyl-PGE2 ethyl ester]
- change in vivo at 1 mg/kg [2]: 31%
- change in vivo at 1 mg/kg [3, 4]: 6%
- change in vivo at 1 mg/kg [3, 5]: 29%

Compound: CCCCC(O)C(=O)CC[C@H]1[C@H](O)CC(=O)[C@@H]1C/C=C\CCCC(=O)OCC (stereo partly drawn) [Compound 35, 13,14-dihydro-15-keto-16R,S-hydroxy-PGE2 ethyl ester]
- change in vivo at 1 mg/kg [2]: 37%
- change in vivo at 1 mg/kg [3, 4]: 17%
- change in vivo at 1 mg/kg [3, 5]: 27%

Compound: CCCCC(F)C(=O)CC[C@H]1[C@H](O)CC(=O)[C@@H]1C/C=C\CCCC(=O)O (stereo partly drawn) [Compound 36, 13,14-dihydro-15-keto-16R,S-fluoro-PGE2]
- change in vivo at 1 mg/kg [3, 4]: 33%
- change in vivo at 1 mg/kg [3, 5]: 32%
- LD50 (acute toxicity LD50): > 500 mg/kg

Compound: CCCCC(F)C(=O)CC[C@H]1[C@H](O)CC(=O)[C@@H]1C/C=C\CCCC(=O)OCC (stereo partly drawn) [Compound 38, 13,14-dihydro-15-keto-16R,S-fluoro-PGE2 ethyl ester]
- change in vivo at 1 mg/kg [2]: 47%
- change in vivo at 1 mg/kg [3, 4]: 14%
- change in vivo at 1 mg/kg [3, 5]: 15%

Compound: CCCCC(F)C(=O)CC[C@H]1[C@H](C)CC(=O)[C@@H]1C/C=C\CCCC(=O)OCC (stereo partly drawn) [Compound 40, 13,14-dihydro-15-keto-16R,S-fluoro-11-dehydroxy-11R-methyl-PGE2 ethyl ester]
- change in vivo at 1 mg/kg [2]: 16%
- change in vivo at 1 mg/kg [3, 4]: 17%
- change in vivo at 1 mg/kg [3, 5]: 27%

Compound: CCCCCC(=O)CC[C@H]1[C@H](C)CC(=O)[C@@H]1C/C=C\CCCC(=O)OCC [Compound 41, 13,14-dihydro-15-keto-11-dehydroxy-11R-methylPGE2 ethyl ester]
- change in vivo at 1 mg/kg [2]: 20%
- change in vivo at 1 mg/kg [3, 4]: 11%
- change in vivo at 1 mg/kg [3, 5]: 26%

Compound: CCC[C@H](C)CC(=O)CC[C@H]1[C@H](O)CC(=O)[C@@H]1C/C=C\CCCC(=O)OC [Compound 42, 13,14-dihydro-15-keto-17S-methyl-PGE2 methyl ester]
- change in vivo at 1 mg/kg [2]: 28%
- change in vivo at 1 mg/kg [3, 4]: 12%
- change in vivo at 1 mg/kg [3, 5]: 7%

Compound: COC(=O)CCC/C=C\C[C@H]1C(=O)C[C@@H](O)[C@@H]1CCC(=O)CCCC(C)C [Compound 43, 13,14-dihydro-15-keto-19-methyl-PGE2 methyl ester]
- change in vivo at 1 mg/kg [2]: 41%
- change in vivo at 1 mg/kg [3, 4]: 14%
- change in vivo at 1 mg/kg [3, 5]: 45%

Compound: CCOC(=O)CCC/C=C\C[C@H]1C(=O)C[C@@H](O)[C@@H]1CCC(=O)CCCC(C)C [Compound 44, 13,14-dihydro-15-keto-19-methyl-PGE2 ethyl ester]
- change in vivo at 1 mg/kg [2]: 16%
- change in vivo at 1 mg/kg [3, 4]: 20%
- change in vivo at 1 mg/kg [3, 5]: 30%

Compound: COCCCCCC(=O)CC[C@H]1[C@H](O)CC(=O)[C@@H]1C/C=C\CCCC(=O)OC [Compound 45, 13,14-dihydro-15-keto-20-methoxy-PGE2 methyl ester]
- change in vivo at 1 mg/kg [2]: 10%
- change in vivo at 1 mg/kg [3, 4]: 2%
- change in vivo at 1 mg/kg [3, 5]: 4%

Compound: COCCCCCC(=O)CC[C@H]1[C@H](O)CC(=O)[C@@H]1C/C=C\CC=CC(=O)OC [Compound 46, 13,14-dihydro-15-keto-20-methoxy-Δ^2 -PGE2 methyl ester]
- change in vivo at 1 mg/kg [2]: 10%
- change in vivo at 1 mg/kg [3, 4]: 5%
- change in vivo at 1 mg/kg [3, 5]: 13%

Compound: COCCCCCC(=O)CC[C@H]1[C@H](O)CC(=O)[C@@H]1C/C=C\CC(C)CC(=O)OC (stereo partly drawn) [Compound 47, 13,14-dihydro-15-keto-3R,S-methyl-20-methoxy-PGE2 methyl ester]
- change in vivo at 1 mg/kg [2]: 17%
- change in vivo at 1 mg/kg [3, 4]: 1%
- change in vivo at 1 mg/kg [3, 5]: 4%

Compound: CC(C)=CCCCCC(=O)CC[C@H]1[C@H](O)CC(=O)[C@@H]1C/C=C\CCCC(=O)O [Compound 49, 13,14-dihydro-15-keto-20-isopropylidene-PGE2]
- change in vivo at 1 mg/kg [2]: 18%
- change in vivo at 1 mg/kg [3, 4]: 2%
- change in vivo at 1 mg/kg [3, 5]: 3%

Compound: COC(=O)CCC/C=C\C[C@H]1C(=O)C[C@@H](O)[C@@H]1CCC(=O)CCCCC=C(C)C [Compound 50, 13,14-dihydro-15-keto-20-isopropylidene-PGE2 methyl ester]
- change in vivo at 1 mg/kg [2]: 18%
- change in vivo at 1 mg/kg [3, 4]: 2%
- change in vivo at 1 mg/kg [3, 5]: 5%

Compound: CCCCCCCC(=O)CC[C@H]1[C@H](O)CC(=O)[C@@H]1C/C=C\CCCC(=O)OC [Compound 51, 13,14-dihydro-15-keto-20-ethyl-PGE2 methyl ester]
- change in vivo at 1 mg/kg [2]: 49%
- change in vivo at 1 mg/kg [3, 4]: 1%
- change in vivo at 1 mg/kg [3, 5]: 14%

Compound: CCCCC[C@H](O)/C=C/[C@H]1[C@H](O)CC(=O)[C@@H]1C/C=C\CCCC(=O)O [Compound 57, PGE2, reference compound]
- change in vivo at 1 mg/kg [2]: 55%
- blood pressure effect (in words) [3]: blood pressure decreasing effect
- change in vivo at 1 mg/kg [3, 4]: -39%
- change in vivo at 1 mg/kg [3, 5]: 14%

Compound: CCCCC[C@H](O)/C=C/[C@H]1[C@H](O)CC(=O)[C@@H]1C/C=C\CCCC(=O)OC [Compound 58, PGE2 methyl ester, reference compound]
- change in vivo at 1 mg/kg [2]: 35%
- blood pressure effect (in words) [3]: blood pressure decreasing effect
- change in vivo at 1 mg/kg [3, 4]: -11%
- change in vivo at 1 mg/kg [3, 5]: 33%
